Experimental data published in publication PMC12562321 (2025).

Key:
[1] = tested on: OA63 (DNA, aptamer) CCGGGTGGGTGGGTGTGGTCTTGTATTTGATTATGTCTGTCGGCGCTTTTTGGCCCCTTCGTT; assay: electrochemical aptasensor (DPV); details: 150 mM NaCl, 2 mM Mg2+; 50 mM Tris pH 7.5, 25 °C, 30 min; capture probe P63_8; 5-200 nM OA
[2] = tested on: OA31 (DNA, aptamer) CCACCAACGAGAGTCAGAAAACCATGGTGGG; assay: electrochemical aptasensor (DPV); details: 150 mM NaCl, 2 mM Mg2+, capture probe P31_14

Compound | binding [1] | binding ([2]; 50 mM Tris pH 7.5, 4 °C, 5 min, 5-200 nM OA) | binding ([2]; 50 mM Tris pH 7.5, sensitivity 2 times lower than for OA)
C=C1[C@@H](O)[C@@H]2O[C@]3(CC[C@H](/C=C/[C@@H](C)[C@@H]4CC(C)=C[C@@]5(O[C@H](C[C@@](C)(O)C(=O)O)CC[C@H]5O)O4)O3)CC[C@H]2O[C@@H]1[C@@H](O)C[C@H](C)[C@H]1O[C@@]2(CCCCO2)CC[C@H]1C | yes | yes | –
C=C1[C@@H](O)[C@@H]2O[C@]3(CC[C@H](/C=C/[C@@H](C)[C@@H]4CC(C)=C[C@@]5(O[C@H](C[C@@](C)(O)C(=O)O)CC[C@H]5O)O4)O3)CC[C@H]2O[C@@H]1[C@@H](O)C[C@H](C)[C@H]1O[C@@]2(CC[C@H]1C)OCCC[C@H]2C | – | – | yes
